What was measured:
Assay in all cases: combination Emax (second highest fraction inhibited in the dose matrix, 72 h); higher = more inhibition; extreme values may be limits of the assay
[1] = system: SK-MG-1 (Low Grade Glioma)
How it was run: (§1)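 Cell lines grown in DMEM/F12 or RPMI with 10% FBS were plated in 1536-well plates and held 24 hours at 37°C, 5% CO2 before 72 hours of exposure to two-drug dose matrices, with DMSO typically at 0.2%. CellTiter-Glo 2.0 luminescence gave viability, which was converted to inhibition. Vehicle wells were set to 0 and blank wells to 1. Combination Emax is the second-highest inhibition in the matrix, and Bliss excess is the observed combination effect minus the expected EA + EB − EA·EB, where EA and EB are the single-agent effects.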

[2] = system: KARPAS-422 (B-Cell Non-Hodgkin's Lymphoma)
How it was run: as §1

[3] = system: NCI-H64 (Small Cell Lung Carcinoma)
How it was run: as §1

GI-ME-N (Neuroblastoma) = system: GI-ME-N (Neuroblastoma)
How it was run: as §1

[4] = system: CCK-81 (Colorectal Carcinoma)
How it was run: as §1

[5] = system: SK-MES-1 (Squamous Cell Lung Carcinoma)
How it was run: as §1

LN-405 (Glioblastoma) = system: LN-405 (Glioblastoma)
How it was run: as §1

[6] = system: COLO-320-HSR (Colorectal Carcinoma)
How it was run: as §1

PA-1 (Ovarian Carcinoma) = system: PA-1 (Ovarian Carcinoma)
How it was run: as §1

[7] = system: COLO-824 (Breast Carcinoma)
How it was run: as §1

NCI-H2591 (Mesothelioma) = system: NCI-H2591 (Mesothelioma)
How it was run: as §1

[8] = system: NCI-H2141 (Small Cell Lung Carcinoma)
How it was run: as §1

U-2-OS (Osteosarcoma) = system: U-2-OS (Osteosarcoma)
How it was run: as §1

[9] = system: NCI-H1650 (Lung Adenocarcinoma)
How it was run: as §1

[10] = system: MDST8 (Colorectal Carcinoma)
How it was run: as §1

[11] = system: ECC10 (Gastric Carcinoma)
How it was run: as §1

[12] = system: NCI-H2066 (Squamous Cell Lung Carcinoma)
How it was run: as §1

[13] = system: NCI-H1581 (Non-Small Cell Lung Carcinoma)
How it was run: as §1

[14] = system: NCI-H1693 (Lung Adenocarcinoma)
How it was run: as §1

[15] = system: NCI-H1666 (Lung Adenocarcinoma)
How it was run: as §1

SMILES	combination Emax [1]	combination Emax [2]	combination Emax [3]	combination Emax (GI-ME-N (Neuroblastoma))	combination Emax [4]	combination Emax [5]	combination Emax (LN-405 (Glioblastoma))	combination Emax [6]	combination Emax (PA-1 (Ovarian Carcinoma))	combination Emax [7]	combination Emax (NCI-H2591 (Mesothelioma))	combination Emax [8]	combination Emax (U-2-OS (Osteosarcoma))	combination Emax [9]	combination Emax [10]	combination Emax [11]	combination Emax [12]	combination Emax [13]	combination Emax [14]	combination Emax [15]
NC1(C(=O)N[C@@H](CCO)c2ccc(Cl)cc2)CCN(c2ncnc3[nH]ccc23)CC1 [Capivasertib] + CC(C)n1c(=O)n(C)c2cnc3cc(F)c(-c4ccc(OCCCN5CCCCC5)nc4)cc3c21 [AZD1390] (first compound max 10 µM, 7x7, partner max 0.3 µM)	0.519	0.507	0.251	0.335	0.327	0.237	0.489	0.172	0.753	0.464	0.182	0.249	0.288	0.317	0.363	0.274	0.553	0.129	0.315	0.31
NC1(C(=O)N[C@@H](CCO)c2ccc(Cl)cc2)CCN(c2ncnc3[nH]ccc23)CC1 [Capivasertib] + CCN(CCO)CCCOc1ccc2c(Nc3cc(CC(=O)Nc4cccc(F)c4)[nH]n3)ncnc2c1 [AZD2811] (first compound max 10 µM, 7x7, partner max 1 µM)	0.607	0.531	0.668	0.324	0.366	0.36	0.497	0.174	0.918	0.85	0.297	0.345	0.383	0.351	0.511	0.86	0.534	0.469	0.36	0.388
NC1(C(=O)N[C@@H](CCO)c2ccc(Cl)cc2)CCN(c2ncnc3[nH]ccc23)CC1 [Capivasertib] + COc1nnc2ccc(N3CCC(c4ccc(OCCN5CCN(C)C(=O)[C@H]5C)cc4)CC3)nn12 [AZD5153] (first compound max 10 µM, 7x7, partner max 1 µM)	0.721	0.68	0.548	0.343	0.695	0.583	0.623	0.242	0.998	0.776	0.334	0.377	0.354	0.442	0.733	0.981	0.77	0.462	0.554	0.385
NC1(C(=O)N[C@@H](CCO)c2ccc(Cl)cc2)CCN(c2ncnc3[nH]ccc23)CC1 [Capivasertib] + C[C@@H]1COCCN1C2=NC(=NC(=C2)C3(CC3)[S@](=N)(=O)C)C4=C5C=CNC5=NC=C4 [AZD6738] (first compound max 10 µM, 7x7, partner max 10 µM)	0.668	0.566	0.861	0.411	0.857	0.855	0.615	0.507	0.964	0.68	0.482	0.557	0.535	0.541	0.765	0.498	0.626	0.235	0.44	0.44
NC1(C(=O)N[C@@H](CCO)c2ccc(Cl)cc2)CCN(c2ncnc3[nH]ccc23)CC1 [Capivasertib] + Cn1cnc2c(F)c(Nc3ccc(Br)cc3Cl)c(C(=O)NOCCO)cc21 [Selumetinib] (first compound max 10 µM, 7x7, partner max 10 µM)	0.681	0.58	0.321	0.377	0.737	0.768	0.539	0.214	0.884	0.595	0.469	0.214	0.892	0.358	0.757	0.506	0.685	0.513	0.44	0.623
Cc1nc(Nc2ncc(C(=O)Nc3c(C)cccc3Cl)s2)cc(N2CCN(CCO)CC2)n1 [Dasatinib] + CC(=O)Nc1cccc(-n2c(=O)n(C3CC3)c(=O)c3c(Nc4ccc(I)cc4F)n(C)c(=O)c(C)c32)c1 [Trametinib] (first compound max 2 µM, 7x7, partner max 1 µM)	0.65	0.469	0.185	0.49	0.641	0.941	0.468	0.15	0.936	0.232	0.527	0.129	0.9	0.419	0.781	0.856	0.402	0.552	0.699	0.651

— the supplement of paper PMC11061612
